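All cell lines were grown in 96-well plates and treated with compound for 48 hours. TGI is the concentration that stops growth completely.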
Tests used:
Assay in all cases: NCI tumour cell line growth inhibition, 48 h
HS 578T breast = system: HS 578T breast
MOLT-4 leukemia = system: MOLT-4 leukemia
OVCAR-8 ovarian = system: OVCAR-8 ovarian
EKVX NSCLC = system: EKVX NSCLC
UO-31 renal = system: UO-31 renal
SK-MEL-2 melanoma = system: SK-MEL-2 melanoma
SF-295 CNS = system: SF-295 CNS
MALME-3M melanoma = system: MALME-3M melanoma
RPMI-8226 leukemia = system: RPMI-8226 leukemia
NCI-H226 lung = system: NCI-H226 lung

SMILES | TGI (HS 578T breast) | TGI (MOLT-4 leukemia) | TGI (OVCAR-8 ovarian) | TGI (EKVX NSCLC) | TGI (UO-31 renal) | TGI (SK-MEL-2 melanoma) | TGI (SF-295 CNS) | TGI (MALME-3M melanoma) | TGI (RPMI-8226 leukemia) | TGI (NCI-H226 lung)
CC1CN=C(c2cccc(OCc3ccc(COc4cccc(C5=NCC(C)N5)c4)cc3)c2)N1 (configuration not stated) | > 100 µM | 57.3 µM | > 100 µM | > 100 µM | > 100 µM | 79.7 µM | > 100 µM | > 100 µM | 45.4 µM | 
NC(N)=N/N=C(\c1ccc(Cl)cc1)C1CC1 | 78.3 µM |  | 40.4 µM | 83 µM | 79.9 µM | 34.5 µM | 48.3 µM | 29 µM | 37.9 µM | 33.2 µM
Cc1ccc2c(c1)c(=O)c1c(NCCN(C)C)ccc3nnn2c31 |  | 5.06 µM | 17.7 µM | 23.6 µM | 23.9 µM | 21.1 µM | 15.4 µM | 18 µM | 7.63 µM | 10.3 µM
CCCCCCCCCCCCCCCCOCC(CC(F)(F)P(=O)(O)O)OC(C)=O (configuration not stated) |  | > 50 µM |  | > 50 µM | > 50 µM | > 50 µM | > 50 µM | > 50 µM | > 50 µM | > 50 µM
CCCCc1ccc2[n+](c1)C(C(=O)OCC)=PC2 (configuration not stated) | > 100 µM | > 100 µM | > 100 µM | > 100 µM |  |  | > 100 µM | > 100 µM | > 100 µM | 
Cc1cccc(NC(=O)CC(=O)N2N=C(N3c4ccccc4Sc4ccccc43)CC2c2ccccc2)c1 (configuration not stated) | > 100 µM | > 100 µM | > 100 µM | > 100 µM | > 100 µM | > 100 µM | > 100 µM |  | > 100 µM | > 100 µM
O=C1c2cc([N+](=O)[O-])ccc2NC2C(O)c3ccccc3N12 (configuration not stated) | 74.3 µM | 49.1 µM | 65 µM | 43 µM | > 100 µM | > 100 µM | > 100 µM |  | 44.1 µM | 82.9 µM
O=c1[nH]c(=O)n(C2CC(O)C(CO)O2)cc1C#Cc1ccc(C(F)(F)F)cc1 (configuration not stated) |  | > 100 µM | > 100 µM | > 100 µM | > 100 µM | > 100 µM | > 100 µM | > 100 µM | > 100 µM | > 100 µM
COc1cc(N=Nc2cccc(S(=O)(=O)O)c2)c(C)cc1N=Nc1ccc(/C=C/c2ccc(N=[N+]([O-])c3ccc(/C=C/c4ccc(N=Nc5cc(C)c(N=Nc6cccc(S(=O)(=O)O)c6)cc5OC)cc4)c(S(=O)(=O)O)c3)cc2S(=O)(=O)O)cc1 |  | > 100 µM | > 100 µM | > 100 µM | > 100 µM | > 100 µM | > 100 µM | > 100 µM |  | > 100 µM
C=CCc1c(O)c2ccccc2[nH]c1=O | > 100 µM | > 100 µM | > 100 µM | > 100 µM | > 100 µM |  | > 100 µM | > 100 µM | > 100 µM | > 100 µM
Oc1c2cccc1Cc1cccc3c1OCCOCCOCCOCCOc1c(cccc1Cc1cccc(c1O)C3)C2 | > 100 µM | > 100 µM | > 100 µM | > 100 µM | > 100 µM | > 100 µM | > 100 µM |  | > 100 µM | 81 µM
CC(C)(C)OC(=O)NC(Cc1ccccc1)C(=O)N[C@H]1c2ccsc2/C(=N/O)[C@H]1O (some centres not stated) |  | > 100 µM | > 100 µM | > 100 µM | > 100 µM | > 100 µM | > 100 µM | > 100 µM |  | > 100 µM
NC1=NS(=O)(=O)N=C(N)C1=Cc1ccc([N+](=O)[O-])o1 |  | 40.7 µM | 33.3 µM | 32.5 µM | 31.8 µM | 30.9 µM | 61.8 µM | 29.7 µM | 70 µM | 53.7 µM
O=C1/C(=C/c2ccccc2S)N=C(c2ccccc2)N1c1ccc2c(c1)Sc1cc(N3C(=O)/C(=C/c4ccccc4S)N=C3c3ccccc3)ccc1N2 | 72.4 µM | 39.7 µM | 43.1 µM | 41.6 µM | 29.9 µM | 44.8 µM | 39.9 µM |  | 46.8 µM | 
CC(C)=CCN(N=O)c1ncnc2nc[nH]c12 | > 100 µM | > 100 µM | > 100 µM | > 100 µM | > 100 µM |  | > 100 µM | > 100 µM | > 100 µM | > 100 µM
N#Cc1c(=O)c2cccnc2n2c1[nH]c1ccccc12 | 69.9 µM | > 100 µM | > 100 µM | > 100 µM | > 100 µM | > 100 µM | > 100 µM |  | > 100 µM | > 100 µM
O=C1C/C(=C\O)C(=O)c2ccccc2N1 | > 100 µM | > 100 µM | > 100 µM | > 100 µM | > 100 µM | > 100 µM | > 100 µM | > 100 µM |  | > 100 µM
O=c1c(Cc2ccc(Cl)cc2)nnc2sc(-c3ccc([N+](=O)[O-])cc3)nn12 | > 100 µM | > 100 µM | > 100 µM | 64.4 µM | > 100 µM | 33.7 µM | > 100 µM | 55.5 µM | 89.9 µM | 
Cc1ccc(Nc2nc(=O)[nH]c(=O)[nH]2)cc1N | > 100 µM |  | > 100 µM | > 100 µM |  | > 100 µM | > 100 µM | > 100 µM | > 100 µM | > 100 µM
Cc1ccc2ccccc2c1CC1S(=O)(=O)OCCOS1(=O)=O |  | 27.5 µM | 37.1 µM | 29.9 µM | 27.1 µM | 37.9 µM | 27.4 µM | 25.2 µM | 32.3 µM | 
COc1cc(S(=O)(=O)Nc2nc(-c3ccc(N4C(=O)/C(=C/c5ccccc5)N=C4c4ccccc4)cc3)cs2)ccc1Cl | 93.6 µM | > 100 µM | > 100 µM |  | > 100 µM | 84.8 µM | > 100 µM | 83.6 µM |  | > 100 µM
C/C(=N\N(C)C)C(CN(C)C)C(c1ccccc1)c1c(O)c2ccccc2oc1=O (configuration not stated) |  | > 100 µM | > 100 µM | > 100 µM |  | > 100 µM | > 100 µM | > 100 µM | > 100 µM | > 100 µM
COc1ccc(N2C(=O)C3c4[nH]c5ccc(C)cc5c4C4CCC(C(C)C)CC4C3C2=O)cc1 (configuration not stated) | > 100 µM | > 100 µM | > 100 µM | > 100 µM | > 100 µM | > 100 µM | > 100 µM |  | > 100 µM | > 100 µM

— PubChem BioAssay (NCI)
